According to ChEMBL document CHEMBL5346877, “A-ring-fused pyrazoles of dihydrotestosterone targeting prostate cancer cells via the downregulation of the androgen receptor” (Eur J Med Chem, 2023):
Activity calls are given as the source filed them. The rule behind the calls is not given here.

Key:
CWR22R = assay: Cytotoxicity against human 22Rv1 cells assessed as cell viability at 20 uM incubated for 72 hrs by resazurin dye based microplate reader assay; assay type: functional; conditions: read-out: Activity
LAPC4 [1] = assay: Cytotoxicity against human LAPC4 cells assessed as cell viability at 20 uM incubated for 72 hrs by resazurin dye based microplate reader assay; assay type: functional; conditions: read-out: Activity
LAPC4 [2] = assay: Inhibition of colony formation in human LAPC4 cells at 10 uM incubated for 10 days by crystal violet staining based assay; assay type: functional; conditions: LAPC4, 240 h, time 10 day
[3] = Downregulation of AR protein expression in human LAPC4 cells assessed as AR levels at 10 uM incubated for 24 hrs by immunoblotting analysis; assay type: functional
DU-145 = assay: Cytotoxicity against human DU-145 cells assessed as cell viability at 20 uM incubated for 72 hrs by resazurin dye based microplate reader assay; assay type: functional; conditions: read-out: Activity
LAPC4 [4] = assay: Inhibition of colony formation in human LAPC4 cells at 5 uM incubated for 10 days by crystal violet staining based assay; assay type: functional, cell-based; conditions: time 10.0 day

SMILES	viability at 20 µM (CWR22R) [%]	viability at 20 µM (LAPC4 [1]) [%]	inhibition at 10 µM (LAPC4 [2]) [%]	Activity [3]	viability at 20 µM (DU-145) [%]	inhibition (LAPC4 [4])
C[C@]12Cc3cnn(-c4ccc(Br)cc4)c3C[C@@H]1CC[C@@H]1[C@@H]2CC[C@]2(C)[C@@H](O)CC[C@@H]12	62	58	1	>=100%	100	–
Cc1c2c(nn1-c1ccc(Cl)cc1)C[C@@H]1CC[C@@H]3[C@H](CC[C@]4(C)C(=O)CC[C@@H]34)[C@@]1(C)C2	75	38	16	–	≥ 100	Active
Cn1nc2c(c1-c1ccccc1)C[C@@]1(C)[C@@H](CC[C@@H]3[C@@H]1CC[C@]1(C)[C@@H](O)CC[C@@H]31)C2	48	51	2	93%	100	Active
Cc1c2c(nn1-c1ccccc1)C[C@@H]1CC[C@@H]3[C@H](CC[C@]4(C)C(=O)CC[C@@H]34)[C@@]1(C)C2	90	87	54	–	100	Active
Cc1c2c(nn1-c1ccc([N+](=O)[O-])cc1)C[C@@H]1CC[C@@H]3[C@H](CC[C@]4(C)[C@@H](O)CC[C@@H]34)[C@@]1(C)C2	58	74	11	–	85	Active
C[C@]12CC[C@H](O)CC1=CC[C@@H]1[C@@H]2CC[C@]2(C)C(n3cnc4ccccc43)=CC[C@@H]12 [GALETERONE]	95	≥ 76	30	81%	≥ 100	–
Cc1c2c(nn1-c1ccc(F)cc1)C[C@@H]1CC[C@@H]3[C@H](CC[C@]4(C)C(=O)CC[C@@H]34)[C@@]1(C)C2	75	42	15	–	≥ 100	Active
C[C@]12Cc3cnn(-c4ccc(C#N)cc4)c3C[C@@H]1CC[C@@H]1[C@@H]2CC[C@]2(C)[C@@H](O)CC[C@@H]12	65	65	12	>=100%	88	–
N#Cc1ccc(O[C@H]2CC[C@H](NC(=O)c3ccc(N4CCC(CN5CCN(c6cc7c(cc6F)C(=O)N(C6CCC(=O)NC6=O)C7=O)CC5)CC4)nn3)CC2)cc1Cl (some centres not stated) [BAVDEGALUTAMIDE]	96	5	7	14%	85	–
COc1ccc(-n2nc3c(c2C)C[C@@]2(C)[C@@H](CC[C@@H]4[C@@H]2CC[C@]2(C)C(=O)CC[C@@H]42)C3)cc1	77	57	20	–	≥ 100	Active
Cc1c2c(nn1-c1ccc(Cl)cc1)C[C@@H]1CC[C@@H]3[C@H](CC[C@]4(C)[C@@H](O)CC[C@@H]34)[C@@]1(C)C2	52	47	4	–	107	Active
Cc1c2c(nn1-c1ccc(Br)cc1)C[C@@H]1CC[C@@H]3[C@H](CC[C@]4(C)[C@@H](O)CC[C@@H]34)[C@@]1(C)C2	50	52	5	–	89	Active
COc1ccc(-n2nc3c(c2C)C[C@@]2(C)[C@@H](CC[C@@H]4[C@@H]2CC[C@]2(C)[C@@H](O)CC[C@@H]42)C3)cc1	54	82	7	–	29	Active
C[C@]12Cc3c(nn(-c4ccccc4)c3-c3ccccc3)C[C@@H]1CC[C@@H]1[C@@H]2CC[C@]2(C)[C@@H](O)CC[C@@H]12	47	72	≥ 100	>=100%	12	–
C[C@]12Cc3cnn(-c4ccc([N+](=O)[O-])cc4)c3C[C@@H]1CC[C@@H]1[C@@H]2CC[C@]2(C)[C@@H](O)CC[C@@H]12	97	40	15	>=100%	99	–
Cc1c2c(nn1-c1ccc([N+](=O)[O-])cc1)C[C@@H]1CC[C@@H]3[C@H](CC[C@]4(C)C(=O)CC[C@@H]34)[C@@]1(C)C2	57	48	26	–	≥ 100	Active
C[C@]12CC[C@H](O)CC1=CC[C@@H]1[C@@H]2CC[C@]2(C)C(c3cccnc3)=CC[C@@H]12 [ABIRATERONE]	≥ 100	100	70	88%	≥ 100	–
COc1ccc(-n2ncc3c2C[C@@H]2CC[C@@H]4[C@H](CC[C@]5(C)[C@@H](O)CC[C@@H]45)[C@@]2(C)C3)cc1	75	43	0	>=100%	97	–
CNC(=O)c1ccc(N2C(=S)N(c3ccc(C#N)c(C(F)(F)F)c3)C(=O)C2(C)C)cc1F [ENZALUTAMIDE]	≥ 100	81	44	85%	96	–
Cc1c2c(nn1-c1ccc(C#N)cc1)C[C@@H]1CC[C@@H]3[C@H](CC[C@]4(C)[C@@H](O)CC[C@@H]34)[C@@]1(C)C2	43	73	6	–	50	Active
Cc1ccc(-n2nc3c(c2C)C[C@@]2(C)[C@@H](CC[C@@H]4[C@@H]2CC[C@]2(C)C(=O)CC[C@@H]42)C3)cc1	97	87	54	–	≥ 100	Active
Cc1ccc(-n2nc3c(c2C)C[C@@]2(C)[C@@H](CC[C@@H]4[C@@H]2CC[C@]2(C)[C@@H](O)CC[C@@H]42)C3)cc1	37	88	2	–	93	Active
Cc1c2c(nn1-c1ccc(Br)cc1)C[C@@H]1CC[C@@H]3[C@H](CC[C@]4(C)C(=O)CC[C@@H]34)[C@@]1(C)C2	–	–	–	–	–	Active
C[C@]12Cc3cnn(-c4ccc(F)cc4)c3C[C@@H]1CC[C@@H]1[C@@H]2CC[C@]2(C)[C@@H](O)CC[C@@H]12	57	44	1	>=100%	55	–
